Results reported in PubChem BioAssay (NCI).
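These data come from cells grown in 96-well plates and exposed to compound for 48 hours at five concentrations. The concentration for 50% growth inhibition is given as GI50. TGI: concentration producing complete growth inhibition.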

What was measured:
Assay in all cases: NCI anticancer screen, dose series, 48 h
786-0 renal = system: 786-0 renal
A549 NSCLC = system: A549 NSCLC
ACHN renal = system: ACHN renal
BT-549 breast = system: BT-549 breast
CAKI-1 renal = system: CAKI-1 renal
CCRF-CEM leukemia = system: CCRF-CEM leukemia
COLO 205 colon = system: COLO 205 colon
DU-145 prostate = system: DU-145 prostate
EKVX NSCLC = system: EKVX NSCLC
HCC-2998 colon = system: HCC-2998 colon
HCT-116 colon = system: HCT-116 colon
HCT-15 colon = system: HCT-15 colon
HOP-62 NSCLC = system: HOP-62 NSCLC
HOP-92 NSCLC = system: HOP-92 NSCLC
HS 578T breast = system: HS 578T breast
HT29 colon = system: HT29 colon
IGROV1 ovarian = system: IGROV1 ovarian
K-562 leukemia = system: K-562 leukemia
KM12 colon = system: KM12 colon
LOX IMVI melanoma = system: LOX IMVI melanoma
M14 melanoma = system: M14 melanoma
MCF7 breast = system: MCF7 breast
MDA-MB-231 breast = system: MDA-MB-231 breast
MDA-MB-435 = system: MDA-MB-435
MOLT-4 leukemia = system: MOLT-4 leukemia
NCI-H226 lung = system: NCI-H226 lung
NCI-H23 lung = system: NCI-H23 lung

In the case of Cc1ccc(Cl)cc1Nc1nc(C(F)(F)F)ccc1C(N)=O, the GI50 (786-0 renal) is reported as 3.28 µM, the TGI (786-0 renal) is reported as 13.6 µM and the GI50 (A549 NSCLC) is reported as 12.8 µM. It also gave a TGI (A549 NSCLC) greater than 100 µM, a GI50 (ACHN renal) of 3.67 µM and a TGI (ACHN renal) of 15.3 µM. For the same compound, the GI50 (BT-549 breast) was 4.53 µM, the TGI (BT-549 breast) was 28.6 µM and the GI50 (CAKI-1 renal) was 3.5 µM. For the same compound, the TGI (CAKI-1 renal) was 23.9 µM, the GI50 (CCRF-CEM leukemia) was 15.1 µM and the TGI (CCRF-CEM leukemia) was 36.2 µM. The GI50 (COLO 205 colon) was 5.48 µM, the TGI (COLO 205 colon) was 71.2 µM and the GI50 (DU-145 prostate) was 9.77 µM. It also gave a TGI (DU-145 prostate) greater than 100 µM, a GI50 (EKVX NSCLC) of 4.16 µM and a TGI (EKVX NSCLC) of 46.8 µM. It also gave a GI50 (HCC-2998 colon) of 6.1 µM, a TGI (HCC-2998 colon) of 20.3 µM and a GI50 (HCT-116 colon) of 5.91 µM. The TGI (HCT-116 colon) was 22.8 µM, the GI50 (HCT-15 colon) was 5.73 µM and the TGI (HCT-15 colon) was greater than 100 µM. The GI50 (HOP-62 NSCLC) was 3.5 µM, the TGI (HOP-62 NSCLC) was 17.4 µM and the GI50 (HOP-92 NSCLC) was 15.1 µM. For the same compound, the TGI (HOP-92 NSCLC) was 40.7 µM, the GI50 (HS 578T breast) was 0.809 µM and the TGI (HS 578T breast) was 3.94 µM. It also gave a GI50 (HT29 colon) of 4.02 µM, a TGI (HT29 colon) greater than 100 µM and a GI50 (IGROV1 ovarian) of 5.19 µM. The TGI (IGROV1 ovarian) was 59.2 µM, the GI50 (K-562 leukemia) was 21.3 µM and the TGI (K-562 leukemia) was 46.1 µM. The GI50 (KM12 colon) was 5.09 µM, the TGI (KM12 colon) was 47.8 µM and the GI50 (LOX IMVI melanoma) was 2.23 µM. It also gave a TGI (LOX IMVI melanoma) of 11.4 µM, a GI50 (M14 melanoma) of 10.7 µM and a TGI (M14 melanoma) of 35.7 µM. The GI50 (MCF7 breast) was 3.92 µM, the TGI (MCF7 breast) was greater than 100 µM and the GI50 (MDA-MB-231 breast) was 2.47 µM. It also gave a TGI (MDA-MB-231 breast) of 11.8 µM, a GI50 (MDA-MB-435) of 12 µM and a TGI (MDA-MB-435) of 60.4 µM. It also gave a GI50 (MOLT-4 leukemia) of 7.54 µM, a TGI (MOLT-4 leukemia) of 48.4 µM and a GI50 (NCI-H226 lung) of 1.45 µM. The TGI (NCI-H226 lung) was 9.81 µM, the GI50 (NCI-H23 lung) was 2.76 µM and the TGI (NCI-H23 lung) was 15.9 µM.
